Assay [1] deals with UEA-1 binding sites on Caco-2 cell membrane preparations. Briefly: Two tier competition assay: compound incubated alone with membranes, biotinylated UEA-1 added in next step. Also on record: species or system human. Particulars: Table 8, galloyl constructs; for IC50: read-out: IC 50 (uM) 2nd tier. A digest of the protocol:
(§1)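 Plates coated with Caco-2 membrane preparation (10 μg/ml, carbonate buffer pH 9.6) and BSA-blocked. Single tier: compound and biotinylated UEA-1 incubated together overnight. Two tier: compound incubated overnight with membranes first, biotinylated UEA-1 added next. Bound UEA-1 detected by streptavidin-HRP/OPD, OD490.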

For assay [2] the test system is unchanged. As to the kind of experiment: Single tier competition assay: inhibition of biotinylated UEA-1 binding, compound and biotinylated UEA-1 incubated together. Also on record: species or system human. Particulars: Table 8, galloyl constructs; for IC50: read-out: IC 50 (uM) 1st tier (converted). The essentials: as §1

Converted amounts (≈) assume the structure as drawn. Non-standard residues stand in square brackets, D forms with d. Residues, ends and D or L forms follow the SMILES beside them. *: point of attachment. Galloyl = O=C(c1cc(O)c(O)c(O)c1)*

For `CC(=O)N[C@H](CCCCNC(=O)c1cc(O)c(O)c(O)c1)C(=O)N[C@H](CCCCNC(=O)c1cc(O)c(O)c(O)c1)C(=O)N[C@H](CCCCNC(=O)c1cc(O)c(O)c(O)c1)C(=O)N[C@H](CCCCNC(=O)c1cc(O)c(O)c(O)c1)C(=O)N[C@H](CCCCNC(=O)c1cc(O)c(O)c(O)c1)C(N)=O` [MSI 30 #8] (Ac-[dK](Galloyl)[dK](Galloyl)[dK](Galloyl)[dK](Galloyl)[dK](Galloyl)-NH2), in assay [1], the “IC 50 (ug/ml) 2nd tier” value came out at 15 µg/mL (≈ 10.3 µM) and the IC50 was found to be 10 µM. In assay [2], the “IC 50 (ug/ml) 1st tier” value was determined as 70 µg/mL (≈ 47.9 µM) and the IC50 is 48 µM.
On the same counts, the results for `NC(=O)[C@@H](CCCCNC(=O)c1cc(O)c(O)c(O)c1)NC(=O)[C@@H](CCCCNC(=O)c1cc(O)c(O)c(O)c1)NC(=O)[C@@H](CCCCNC(=O)c1cc(O)c(O)c(O)c1)NC(=O)[C@@H](CCCCNC(=O)c1cc(O)c(O)c(O)c1)NC(=O)[C@@H](CCCCNC(=O)c1cc(O)c(O)c(O)c1)NC(=O)c1cc(O)c(O)c(O)c1` [MSI 30 #10] (Galloyl-[dK](Galloyl)[dK](Galloyl)[dK](Galloyl)[dK](Galloyl)[dK](Galloyl)-NH2) are 5 µg/mL (≈ 3.18 µM), 3 µM, 23 µg/mL (≈ 14.6 µM) and 14 µM.
In the case of `CC(=O)N[C@H](CCCCNC(=O)c1cc(O)c(O)c(O)c1)C(=O)N[C@H](CCCCNC(=O)c1cc(O)c(O)c(O)c1)C(=O)N[C@H](CCCCNC(=O)c1cc(O)c(O)c(O)c1)C(=O)N[C@H](CCCCNC(=O)c1cc(O)c(O)c(O)c1)C(=O)N[C@H](CCCCNC(=O)c1cc(O)c(O)c(O)c1)C(=O)N[C@H](CCCCNC(=O)c1cc(O)c(O)c(O)c1)C(N)=O` [MSI 30 #11], in assay [1], the “IC 50 (ug/ml) 2nd tier” value is 2 µg/mL (≈ 1.15 µM) and the IC50 worked out at 1 µM. Also, in assay [2], the “IC 50 (ug/ml) 1st tier” value was found to be 13 µg/mL (≈ 7.47 µM) and the IC50 was 7 µM.
On the same counts, the results for `CC(=O)N[C@H](CCCCNC(=O)c1cc(O)c(O)c(O)c1)C(=O)N[C@H](CCCCNC(=O)c1cc(O)c(O)c(O)c1)C(=O)N[C@H](CCCCNC(=O)c1cc(O)c(O)c(O)c1)C(=O)N[C@H](CCCCNC(=O)c1cc(O)c(O)c(O)c1)C(=O)N[C@H](CCCCNC(=O)c1cc(O)c(O)c(O)c1)C(=O)N[C@H](CCCCNC(=O)c1cc(O)c(O)c(O)c1)C(=O)N[C@H](CCCCNC(=O)c1cc(O)c(O)c(O)c1)C(N)=O` [MSI 30 #14] (Ac-[dK](Galloyl)[dK](Galloyl)[dK](Galloyl)[dK](Galloyl)[dK](Galloyl)[dK](Galloyl)[dK](Galloyl)-NH2) are 9 µg/mL (≈ 4.45 µM), 4 µM, 17 µg/mL (≈ 8.41 µM) and 8 µM.
For the molecule `NC(=O)[C@@H](CCCCNC(=O)c1cc(O)c(O)c(O)c1)NC(=O)[C@@H](CCCCNC(=O)c1cc(O)c(O)c(O)c1)NC(=O)[C@@H](CCCCNC(=O)c1cc(O)c(O)c(O)c1)NC(=O)[C@@H](CCCCNC(=O)c1cc(O)c(O)c(O)c1)NC(=O)[C@@H](CCCCNC(=O)c1cc(O)c(O)c(O)c1)NC(=O)[C@@H](CCCCNC(=O)c1cc(O)c(O)c(O)c1)NC(=O)[C@@H](CCCCNC(=O)c1cc(O)c(O)c(O)c1)NC(=O)c1cc(O)c(O)c(O)c1` [MSI 30 #16] (Galloyl-[dK](Galloyl)[dK](Galloyl)[dK](Galloyl)[dK](Galloyl)[dK](Galloyl)[dK](Galloyl)[dK](Galloyl)-NH2), in assay [1], the “IC 50 (ug/ml) 2nd tier” value came to 8 µg/mL (≈ 3.75 µM) and the IC50 came to 4 µM. Further, in assay [2], the “IC 50 (ug/ml) 1st tier” value amounted to 19 µg/mL (≈ 8.92 µM) and the IC50 was 9 µM.
`NC(=O)C(CCCCNC(=O)C(CCCCNC(=O)C(CCCCNC(=O)c1cc(O)c(O)c(O)c1)NC(=O)c1cc(O)c(O)c(O)c1)NC(=O)C(CCCCNC(=O)c1cc(O)c(O)c(O)c1)NC(=O)c1cc(O)c(O)c(O)c1)NC(=O)C(CCCCNC(=O)C(CCCCNC(=O)c1cc(O)c(O)c(O)c1)NC(=O)c1cc(O)c(O)c(O)c1)NC(=O)C(CCCCNC(=O)c1cc(O)c(O)c(O)c1)NC(=O)c1cc(O)c(O)c(O)c1` (stereo not drawn) [MSI 30 #17]: in assay [1], the “IC 50 (ug/ml) 2nd tier” value was 1st tier = 52nd tier = 5 ug/ml and the IC50 was determined as 2 µM. In assay [2], the “IC 50 (ug/ml) 1st tier” value is 1st tier = 52nd tier = 5 ug/ml and the IC50 was 2 µM.
`NC(=O)C(CNC(=O)C(CNC(=O)c1cc(O)c(O)c(O)c1)NC(=O)c1cc(O)c(O)c(O)c1)NC(=O)C(CNC(=O)c1cc(O)c(O)c(O)c1)NC(=O)c1cc(O)c(O)c(O)c1` (stereo not drawn) [MSI 34 1π5]: in assay [1], the “IC 50 (ug/ml) 2nd tier” value came out at 1 µg/mL (≈ 1.13 µM) and the IC50 worked out at 1 µM. Moreover, in assay [2], the “IC 50 (ug/ml) 1st tier” value is 0.5 µg/mL (≈ 0.566 µM) and the IC50 is 0.5 µM.
For `NC(=O)[C@H](CNC(=O)c1cc(O)c(O)c(O)c1)NC(=O)c1cc(O)c(O)c(O)c1` [MSI 34 #1], in assay [1], the “IC 50 (ug/ml) 2nd tier” value came to 0.8 µg/mL (≈ 1.96 µM) and the IC50 turned out to be 2 µM. For the same molecule, in assay [2], the “IC 50 (ug/ml) 1st tier” value stood at 1 µg/mL (≈ 2.45 µM) and the IC50 is 4 µM.
As for `NC(=O)C(CCCNC(=O)c1cc(O)c(O)c(O)c1)NC(=O)c1cc(O)c(O)c(O)c1` (stereo not drawn) [MSI 34 #3], in assay [1], the “IC 50 (ug/ml) 2nd tier” value was 0.7 µg/mL (≈ 1.61 µM) and the IC50 came to 2 µM. For the same molecule, in assay [2], the “IC 50 (ug/ml) 1st tier” value was 2 µg/mL (≈ 4.59 µM) and the IC50 was 4 µM.
With `NC(=O)C(CCNC(=O)C(CCNC(=O)c1cc(O)c(O)c(O)c1)NC(=O)c1cc(O)c(O)c(O)c1)NC(=O)C(CCNC(=O)c1cc(O)c(O)c(O)c1)NC(=O)c1cc(O)c(O)c(O)c1` (stereo not drawn) [MSI 34 #6], in assay [1], the “IC 50 (ug/ml) 2nd tier” value was 1 µg/mL (≈ 1.08 µM) and the IC50 was found to be 1 µM. Moreover, in assay [2], the “IC 50 (ug/ml) 1st tier” value was 0.6 µg/mL (≈ 0.648 µM) and the IC50 was 0.6 µM.
For `NC(=O)C(CCCNC(=O)C(CCCNC(=O)c1cc(O)c(O)c(O)c1)NC(=O)c1cc(O)c(O)c(O)c1)NC(=O)C(CCCNC(=O)c1cc(O)c(O)c(O)c1)NC(=O)c1cc(O)c(O)c(O)c1` (stereo not drawn) [MSI 34 #7], in that order: 1 µg/mL (≈ 1.03 µM), 1 µM, 0.9 µg/mL (≈ 0.93 µM) and 0.9 µM.
For the molecule `NC(=O)C(Cc1ccc(NC(=O)C(Cc2ccc(NC(=O)c3cc(O)c(O)c(O)c3)cc2)NC(=O)c2cc(O)c(O)c(O)c2)cc1)NC(=O)C(Cc1ccc(NC(=O)c2cc(O)c(O)c(O)c2)cc1)NC(=O)c1cc(O)c(O)c(O)c1` (stereo not drawn) [MSI 34 #8], in assay [1], the “IC 50 (ug/ml) 2nd tier” value is 3 µg/mL (≈ 2.7 µM) and the IC50 was 2 µM. In assay [2], the “IC 50 (ug/ml) 1st tier” value is 4 µg/mL (≈ 3.6 µM) and the IC50 is 4 µM.
On to `NC(=O)C(CNC(=O)c1cc(O)c(O)c(O)c1)NC(=O)C(CNC(=O)c1cc(O)c(O)c(O)c1)NC(=O)c1cc(O)c(O)c(O)c1` (stereo not drawn) [MSI 34 #9], for which, in assay [1], the “IC 50 (ug/ml) 2nd tier” value was 0.5 µg/mL (≈ 0.775 µM) and the IC50 amounted to 0.8 µM. Also, in assay [2], the “IC 50 (ug/ml) 1st tier” value was determined as 0.6 µg/mL (≈ 0.929 µM) and the IC50 was 0.9 µM.
On the same counts, the results for `NC(=O)C(CCNC(=O)c1cc(O)c(O)c(O)c1)NC(=O)C(CCNC(=O)c1cc(O)c(O)c(O)c1)NC(=O)c1cc(O)c(O)c(O)c1` (stereo not drawn) [MSI 34 #10] are 0.7 µg/mL (≈ 1.04 µM), 1 µM, 0.6 µg/mL (≈ 0.891 µM) and 0.9 µM.
For `NC(=O)C(CCCNC(=O)c1cc(O)c(O)c(O)c1)NC(=O)C(CCCNC(=O)c1cc(O)c(O)c(O)c1)NC(=O)c1cc(O)c(O)c(O)c1` (stereo not drawn) [MSI 34 #11], in that order: 0.8 µg/mL (≈ 1.14 µM), 1 µM, 1 µg/mL (≈ 1.43 µM) and 2 µM.
As for `NC(=O)C(Cc1ccc(NC(=O)c2cc(O)c(O)c(O)c2)cc1)NC(=O)C(Cc1ccc(NC(=O)c2cc(O)c(O)c(O)c2)cc1)NC(=O)c1cc(O)c(O)c(O)c1` (stereo not drawn) [MSI 34 #12], in assay [1], the “IC 50 (ug/ml) 2nd tier” value was found to be 4 µg/mL (≈ 5.01 µM) and the IC50 worked out at 5 µM. In addition, in assay [2], the “IC 50 (ug/ml) 1st tier” value was 6 µg/mL (≈ 7.52 µM) and the IC50 is 8 µM.
Take `CC(=O)NC(CNC(=O)c1cc(O)c(O)c(O)c1)C(=O)NC(CNC(=O)c1cc(O)c(O)c(O)c1)C(=O)NC(CNC(=O)c1cc(O)c(O)c(O)c1)C(N)=O` (stereo not drawn) [MSI 34 #13]: in assay [1], the “IC 50 (ug/ml) 2nd tier” value is given as 1st tier = 22nd tier = 2 ug/ml and the IC50 turned out to be 2 µM. Also, in assay [2], the “IC 50 (ug/ml) 1st tier” value is reported as 1st tier = 22nd tier = 2 ug/ml and the IC50 was 3 µM.
For the molecule `CC(=O)NC(CCNC(=O)c1cc(O)c(O)c(O)c1)C(=O)NC(CCNC(=O)c1cc(O)c(O)c(O)c1)C(=O)NC(CCNC(=O)c1cc(O)c(O)c(O)c1)C(N)=O` (stereo not drawn) [MSI 34 #14], in assay [1], the “IC 50 (ug/ml) 2nd tier” value worked out at 1 µg/mL (≈ 1.23 µM) and the IC50 was determined as 1 µM. For the same molecule, in assay [2], the “IC 50 (ug/ml) 1st tier” value turned out to be 2 µg/mL (≈ 2.45 µM) and the IC50 was 2 µM.
Regarding `CC(=O)NC(CCCNC(=O)c1cc(O)c(O)c(O)c1)C(=O)NC(CCCNC(=O)c1cc(O)c(O)c(O)c1)C(=O)NC(CCCNC(=O)c1cc(O)c(O)c(O)c1)C(N)=O` (stereo not drawn) [MSI 34 #15], in assay [1], the “IC 50 (ug/ml) 2nd tier” value came to 2 µg/mL (≈ 2.33 µM) and the IC50 came out at 2 µM. Also, in assay [2], the “IC 50 (ug/ml) 1st tier” value amounted to 8 µg/mL (≈ 9.33 µM) and the IC50 was 9 µM.
With `CC(=O)NC(Cc1ccc(NC(=O)c2cc(O)c(O)c(O)c2)cc1)C(=O)NC(Cc1ccc(NC(=O)c2cc(O)c(O)c(O)c2)cc1)C(=O)NC(Cc1ccc(NC(=O)c2cc(O)c(O)c(O)c2)cc1)C(N)=O` (stereo not drawn) [MSI 34 #16], in assay [1], the “IC 50 (ug/ml) 2nd tier” value is 6 µg/mL (≈ 5.99 µM) and the IC50 amounted to 6 µM. In assay [2], the “IC 50 (ug/ml) 1st tier” value was determined as 3 µg/mL (≈ 2.99 µM) and the IC50 was 3 µM.
For `NC(=O)C(CNC(=O)c1cc(O)c(O)c(O)c1)NC(=O)C(CNC(=O)c1cc(O)c(O)c(O)c1)NC(=O)C(CNC(=O)c1cc(O)c(O)c(O)c1)NC(=O)c1cc(O)c(O)c(O)c1` (stereo not drawn) [MSI 34 #17], in assay [1], the “IC 50 (ug/ml) 2nd tier” value worked out at 0.7 µg/mL (≈ 0.792 µM) and the IC50 came to 0.8 µM. Moreover, in assay [2], the “IC 50 (ug/ml) 1st tier” value was 1 µg/mL (≈ 1.13 µM) and the IC50 was 1 µM.

(Values after patent US7166296B2, “Pharmaceutical formulations and ligands for use therein; mimetics for UEA-1” (Sarlan, Ltd., priority 2001, dated 2007).)
